Source: patent US6294672A, “Indole and azaindole inhibitors of Fructose-1,6-biphosphatase” (Metabasis Therapeutics, Inc., priority 2000, dated 2001)
pIC50: −log10 of the molar value. Like-named read-outs stand apart in the source and are kept apart here.

Key:
[1] = biological target: T1, human liver FBPase (hlFBPase) (Homo sapiens, UniProt P09467); experiment: Inhibition of Human Liver FBPase; type: biochemical
T1 construct: made in house; host or cells: E. coli BL21 (transformed strain from Dr. M. R. El-Maghrabi, SUNY Stony Brook)
T1 sequence (P09467 2-338 limits assumed): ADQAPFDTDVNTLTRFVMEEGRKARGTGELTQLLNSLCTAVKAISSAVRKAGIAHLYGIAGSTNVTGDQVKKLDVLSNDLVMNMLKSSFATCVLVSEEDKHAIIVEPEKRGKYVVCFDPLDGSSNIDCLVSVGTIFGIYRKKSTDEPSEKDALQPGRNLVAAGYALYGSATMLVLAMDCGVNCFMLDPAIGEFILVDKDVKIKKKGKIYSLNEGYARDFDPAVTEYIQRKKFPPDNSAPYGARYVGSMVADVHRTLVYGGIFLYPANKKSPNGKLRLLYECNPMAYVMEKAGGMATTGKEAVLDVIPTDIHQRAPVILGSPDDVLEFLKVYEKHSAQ
Method: (§1) Enzymatic activity was measured spectrophotometrically in reactions that coupled the formation of product (fructose 6-phosphate) to the reduction of dimethylthiazoldiphenyltetrazolium bromide (MTT) via NADP and phenazine methosulfate (PMS), using phosphoglucose isomerase and glucose 6-phosphate dehydrogenase as the coupling enzymes. Reaction mixtures (200 μL) were made up in 96-well microtitre plates, and consisted of 50 mM Tris-HCl, pH 7.4, 100 mM KCl, 5 mM EGTA, 2 mM MgCl2, 0.2 mM NADP, 1 mg/mL BSA, 1 mM MTT, 0.6 mM PMS, 1 unit/mL phosphoglucose isomerase, 2 units/mL glucose 6-phosphate dehydrogenase, and 0.150 mM substrate (fructose 1,6-bisphosphate). Inhibitor concentrations were varied from 0.01 μM to 10 μM. Reactions were started by the addition of 0.002 units of pure hlFBPase and were monitored for 7 minutes at 590 nm in a Molecular Devices Plate Reader (37° C.).

[2] = biological target: T2, Mouse liver FBPase (Mus musculus, UniProt Q9QXD6); experiment: In vitro Inhibition of Mouse Liver FBPase; type: biochemical; conditions: partially purified mouse liver fraction, assayed as for human liver FBPase
T2 construct: Mouse liver FBPase is obtained by homogenizing freshly isolated mouse liver; from tissue; host or cells: freshly isolated mouse liver; 45-75% ammonium sulfate fraction, desalted
T2 sequence (Q9QXD6 2-338 limits assumed): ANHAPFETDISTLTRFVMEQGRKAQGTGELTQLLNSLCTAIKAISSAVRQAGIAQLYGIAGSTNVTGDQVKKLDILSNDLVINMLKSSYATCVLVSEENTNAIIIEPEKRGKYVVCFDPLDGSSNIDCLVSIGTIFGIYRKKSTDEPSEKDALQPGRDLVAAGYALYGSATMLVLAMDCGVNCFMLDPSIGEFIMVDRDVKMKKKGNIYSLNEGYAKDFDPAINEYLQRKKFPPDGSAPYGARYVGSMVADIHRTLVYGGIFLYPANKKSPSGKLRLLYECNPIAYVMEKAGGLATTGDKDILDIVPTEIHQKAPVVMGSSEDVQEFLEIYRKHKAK
Method: as §1, with “E. coli strain BL21 transformed with a human liver FBPase-encoding plasmid was obtained from Dr. M. R. El-Maghrabi at the State University of New York at Stony Brook. hIFBPase was typically purified from 10 liters of E. coli culture as described (M. Gidh-Jain et al., The Journal of Biological Chemistry 1994, 269, 27732-27738). Enzymatic” for “Enzymatic”
(§2) E. coli strain BL21 transformed with a rat liver FBPase-encoding plasmid is obtained from Dr. M. R. El-Maghrabi at the State University of New York at Stony Brook, and purified as described (El-Maghrabi, M. R., and Pilkis, S. J. Biochem. Biophys. Res. Commun. 1991, 176, 137-144). Mouse liver FBPase is obtained by homogenizing freshly isolated mouse liver in 100 mM Tris-HCl buffer, pH 7.4, containing 1 mM EGTA, and 10% glycerol. The homogenate is clarified by centrifugation, and the 45-75% ammonium sulfate fraction prepared. This fraction is redissolved in the homogenization buffer and desalted on a PD-10 gel filtration column (Biorad) eluted with same. This partially purified fraction is used for enzyme assays. Both rat liver and mouse liver FBPase are assayed as described for human liver FBPase. Generally, as reflected by the higher IC50 values, the rat and mouse liver enzymes are less sensitive to inhibition by the compounds tested than the human liver enzyme.

[3] = biological target: T3, rat liver FBPase (Rattus norvegicus, UniProt P19112); experiment: In vitro Inhibition of Rat Liver FBPase; type: biochemical; conditions: assayed as for human liver FBPase
T3 construct: made in house; host or cells: E. coli BL21 (transformed strain from Dr. M. R. El-Maghrabi, SUNY Stony Brook)
T3 sequence (P19112 2-363 limits assumed): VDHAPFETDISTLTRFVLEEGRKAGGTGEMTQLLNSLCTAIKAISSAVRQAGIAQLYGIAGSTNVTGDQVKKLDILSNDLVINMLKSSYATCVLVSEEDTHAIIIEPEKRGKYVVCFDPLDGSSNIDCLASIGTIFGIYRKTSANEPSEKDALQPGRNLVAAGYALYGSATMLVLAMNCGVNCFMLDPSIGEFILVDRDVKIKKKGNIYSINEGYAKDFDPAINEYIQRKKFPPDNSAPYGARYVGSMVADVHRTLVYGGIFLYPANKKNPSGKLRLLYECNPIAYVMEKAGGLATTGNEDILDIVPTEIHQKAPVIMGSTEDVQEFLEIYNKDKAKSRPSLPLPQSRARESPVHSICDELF
Method: as §1, with “E. coli strain BL21 transformed with a human liver FBPase-encoding plasmid was obtained from Dr. M. R. El-Maghrabi at the State University of New York at Stony Brook. hIFBPase was typically purified from 10 liters of E. coli culture as described (M. Gidh-Jain et al., The Journal of Biological Chemistry 1994, 269, 27732-27738). Enzymatic” for “Enzymatic”
as §2

[4] = system: glucose production from lactate/pyruvate in isolated rat hepatocytes; experiment: Inhibition of Gluconeogenesis in Rat Hepatocytes; type: cell-based
Method: Hepatocytes were prepared from overnight fasted Sprague-Dawley rats (250-300 g) according to the procedure of Berry and Friend (Berry, M. N., Friend, D. S., J. Cell. Biol. 1969, 43, 506-520) as modified by Groen (Groen, A. K., Sips, H. J., Vervoorn, R. C., Tager, J. M., Eur. J. Biochem. 1982, 122, 87-93). Hepatocytes (75 mg wet weight/mL) were incubated in 1 mL Krebs-bicarbonate buffer containing 10 mM Lactate, 1 mM pyruvate, 1 mg/mL BSA, and test compound concentrations from 1 to 500 μM. Incubations were carried out in a 95% oxygen, 5% carbon dioxide atmosphere in closed, 50-mL Falcon tubes submerged in a rapidly shaking water bath (37° C.). After 1 hour, an aliquot (0.25 mL) was removed, transferred to an Eppendorf tube and centrifuged. 50 μL of supernatant was then assayed for glucose content using a Sigma Glucose Oxidase kit as per the manufacturer's instructions.

[5] = 0.150 mM fructose 1,6-bisphosphate, pH 7.4, 37° C., read-out: HL FBPase IC50
[6] = Rattus norvegicus, Hepatocyte, 1 hour

Structure (SMILES)	pIC50 [1, 5]	pIC50 [2]	pIC50 [3]	inhibition at 500 µM [4, 6]	other results
CC(C)Cc1c(-c2ccc(P(=O)(O)O)o2)[nH]c2ccc(Cl)cc12 [Compound 10.1, 5-chloro-3-isobutyl-2-(2-(5-phosphono)furanyl)indole]	5.60				
O=P(O)(O)c1ccc(-c2cc3ccccc3[nH]2)o1 [Compound 5.1, 2-(2-(5-phosphono)furanyl)indole]	5.06	< 4.70	< 4.70	39.6%	
COc1ccc2[nH]c(C(=O)NCP(=O)(O)O)cc2c1 [Compound 1.3, Disodium 5-methoxy-2-(phosphonomethylaminocarbonyl)indole]	4.22			3.4%	
Nc1cccc2c(CCc3ccccc3)c(C(=O)NCP(=O)(O)O)[nH]c12 [Compound 3.1, 7-amino-3-(2-phenethyl)-2-(phosphonomethylaminocarbonyl)indole]				41.5%	
CC(C)Cn1c(-c2ccc(P(=O)(O)O)o2)cc2c(N)cccc21 [Compound 9.1, N^1-isobutyl-4-amino-2-(2-(5-phosphone)furanyl)indole]	4.49			57%	dose dependent inhibition of glucose production in rat hepatocytes (FIG. 3) [4]: inhibit glucose production in a dose dependent manner
O=P(O)(O)c1ccc(-c2[nH]c3ccccc3c2Br)o1 [Compound 7.1, 2-(2-(5-phosphono)furanyl)-3-bromoindole]	5.06	< 4.70	< 4.70	45.4%	
Nc1cccc2cc(C(=O)NCP(=O)(O)O)[nH]c12 [Compound 1.1, 7-Amino-2-(phosphonomethylaminocarbonyl)indole]	5.00				dose-dependent inhibition of hlFBPase (FIG. 2) [1]: dose-dependent inhibition
O=C(NCP(=O)(O)O)c1cn2ccccc2n1 [Compound 12.1, 9-aza-2-phosphonomethylaminocarbonylindole]	4.05				
Cc1cccn2c(CC(C)C)c(-c3ccc(P(=O)(O)O)o3)nc12 [Compound 14.4, 9-Aza-3-isobutyl-7-methyl-2-(2-(5-phosphono)furanyl)indole]	5.80	< 4.52	< 4.60		
Nc1cccn2c(-c3ccccc3)c(COCP(=O)(O)O)nc12 [Compound 11.5, 7-amino-9aza-3-phenyl-2-phosphonomethoxymethyl-indole]	5.00		4.05		inhibition at 250 µM ([4]; Rattus norvegicus, Hepatocyte, 250 μM, 1 hour): 50%
O=P(O)(O)c1ccc(-c2[nH]c3ccccc3c2-c2ccccc2)o1 [Compound 7.2, 3-phenyl-2-(2-(5-phosphono)furanyl)indole]	5.07	< 4.70	< 4.70		
O=P(O)(O)c1ccc(-c2cn3cc(Cl)ccc3n2)o1 [Compound 14.2, 9-Aza-5-chloro-2-(2-(5-phosphono)furanyl)indole]	5.35				
O=P(O)(O)COCc1nc2ccccn2c1-c1ccccc1 [Compound 11.3, 9-aza-3-phenyl-2-phosphono-methoxymethylindole]	5.00				
Nc1ncnc2c1ncn2[C@@H]1O[C@H](COP(=O)(O)O)[C@@H](O)[C@H]1O [adenosine monophosphate (AMP), adenosine monophosphate, reference compound]					pIC50 ([1]; under the reaction conditions of Example A, read-out: concentration required to inhibit half of the hlFBPase activity): 6.00
CC(C)Cn1c(-c2ccc(P(=O)(O)O)o2)cc2ccccc21 [Compound 6.1, 1-isobutyl-2-(2-(5-phosphono)furanyl)indole]	4.97	< 4.70	< 4.70	64.4%	dose dependent inhibition of glucose production in rat hepatocytes (FIG. 3) [4]: inhibit glucose production in a dose dependent manner
Nc1cccc2c(-c3ccccc3)c(C(=O)NCP(=O)(O)O)[nH]c12 [Compound 2.1, 7-amino-3-phenyl-2-(phosphonomethylaminocarbonyl)indole]					dose-dependent inhibition of hlFBPase (FIG. 2) [1]: dose-dependent inhibition
